Data reported in US20090054312A1, “SMIPs: Small molecule inhibitors of p27 depletion in cancers and other proliferative diseases” (priority 2007, published 2009).
Where a name gives a salt, the structure may show the parent alone. Read-outs that look alike come from different tables or passages of the source.

Test system: p27 levels in LNCaP-S14 cells
Assay: p27 immunofluorescence screening assay in LNCaP-S14 cells; also: test concentration or dose not given here
[1] = Table 1, compounds showing SMIP activity in the secondary screen, p27-positive cells, cell line not given
[2] = Table 1, standard deviations from plate mean, cell line not given
[3] = […], p27-positive cells, cell line not given

Row | Compound | % positive [1] | Z score [2] | % positive [3] | % positive | Z score
1 | Cc1cc(N)c2ccccc2[n+]1CCCCCCCCCC[n+]1c(C)cc(N)c2ccccc21 [Dequalinium chloride, reference compound] | 30.24% | 18.6318 | – | – | –
2 | CS(=O)(=O)c1ccc(/C=C/C(=O)Nc2cccc(C(F)(F)F)c2)cc1 [3-[4-(methylsulfonyl)phenyl]-N-[3-trifluoromethyl]phenyl]-(2E)-propenamide] | 41.56% | 26.8318 | – | – | –
3 | Cc1cc(Br)ccc1NC(=O)CCCc1c[nH]c2ccccc12 [N-(4-bromo-2-methyl-phenyl)-4-(1H-indol-3-yl)butanamide] | 30.52% | 18.8304 | – | – | –
4 | CC1=CC(=O)c2ccccc2C1=O [Menadione, reference compound] | 38.33% | 24.4943 | – | – | –
5 | CCN(CC)c1cc(-c2ccc(F)cc2)nc(-c2ccncc2)n1 [N,N-diethyl-6-(4-fluorophenyl)-2-pyridin-4-yl-pyrimidin-4-amine] | 4.69% | 0.1118 | – | – | –
6 | O=C(Nc1ccccc1)Nc1ccc(SCc2nc(OCC(F)(F)F)cc(OCC(F)(F)F)n2)cc1 [N-[4-[[[4,6-bis(2,2,2-trifluoroethoxy)pyrimidin-2-yl]methyl]thio]phenyl]-N′′-phenylurea] | 39.26% | 25.1654 | – | – | –
7 | O=c1c(C(F)(F)F)cccn1CCc1nc(-c2ccccc2)cs1 [1-[2-(4-phenyl-1,3-thiazol-2-yl)ethyl]-3-(trifluoromethyl)pyridin-2(1H)-one] | 10.24% | 4.1344 | – | – | –
8 | CC[C@@H](C(=O)[C@@H](C)[C@@H](O)[C@H](C)[C@@H]1O[C@@H]([C@@H](CC)C(=O)O)CC[C@@H]1C)[C@H]1O[C@]2(C=C[C@@H](O)[C@]3(CC[C@@](C)([C@H]4CC[C@](O)(CC)[C@H](C)O4)O3)O2)[C@H](C)C[C@@H]1C [Salinomycin, sodium, reference compound] | – | 37.4159 | 56.17% | – | –
9 | O=C(OCn1ncc(Cl)c(Cl)c1=O)c1ccc(C(F)(F)F)cc1 [(4,5-dichloro-6-oxo-pyridazin-1-yl)methyl-4-(trifluoromethyl)benzoate] | 33.92% | 21.2964 | – | – | –
10 | CSc1ccc2c(c1)C(N1CCN(C)CC1)Cc1ccccc1S2.O=C(O)/C=C\C(=O)O (stereo not drawn) [Methiothepin maleate, reference compound] | 9.08% | 3.2976 | – | – | –
11 | O=C(CCCN1CCC2(CC1)C(=O)NCN2c1ccccc1)c1ccc(F)cc1 [Spiperone, reference compound] | 32.90% | 20.5550 | – | – | –
12 | CN(C)CC/C=C1/c2ccccc2Sc2ccc(Cl)cc21 [Chlorprothixene hydrochloride, reference compound] | 7.49% | 2.1477 | – | – | –
13 | Oc1ccc(Cl)cc1Cc1cc(Cl)ccc1O [Dichlorophene, reference compound] | 12.27% | 5.6065 | – | – | –
14 | [H]/N=C(\N/C(=N/[H])NCCCCCCNC(=N)NC(=N)Nc1ccc(Cl)cc1)Nc1ccc(Cl)cc1 [Chlorhexidine hydrochloride, reference compound] | 25.83% | 15.4338 | – | – | –
15 | COc1ccc(S(=O)(=O)N(Cc2ccc(Cl)cc2)Cc2ccc3cc[nH]c3c2)cc1 [N-(4-chlorobenzyl)-N-[((1H)-indol-6-yl)methyl]-4-methoxybenzenesulfonamide] | 9.23% | 3.4074 | – | – | –
16 | Clofilium tosylate [reference compound] | 53.49% | 35.4749 | – | – | –
17 | COc1ccc2[nH]cc(CCNC(=O)OC[C@@H]3C[C@H]4CC[C@@H]3C4)c2c1 [(1R,2R,4S)-bicyclo[2.2.1]hept-2-ylmethyl[2-(5-methoxy-1H-indol-3-yl)ethyl]carbamate] | 19.39% | 10.7664 | – | – | –
18 | CCCCCCSc1nnc(N)s1 [5-hexylsulfanyl-1,3,4-thiadiazol-2-amine] | 38.52% | 24.6282 | – | – | –
19 | Cc1[nH]cnc1-c1ccc(C(F)(F)F)cc1 [5-methyl-4-(4-(trifluoromethyl)phenyl)-(1H)-imidazole] | 7.89% | 2.4371 | – | – | –
20 | CCCCCCCCCCCCCCCC[N+](C)(C)CCN(Cc1ccc(OC)cc1)c1ncccn1 [Thonzonium, reference compound] | 9.65% | 3.7078 | – | – | –
21 | CC(C)(C)c1cc2cc(NS(=O)(=O)c3ccc(Cl)cc3)ccc2[nH]1 [N-(2-tert-butyl-(1H)-indol-5-yl)-4-chlorobenzenesulfonamide] | 37.42% | 23.8290 | – | – | –
22 | COc1ccc(C[C@H](N)C(=O)N[C@H]2[C@@H](O)[C@H](n3cnc4c(N(C)C)ncnc43)O[C@@H]2CO)cc1 [Puromycin hydrochloride, reference compound] | 63.07% | 42.4217 | – | – | –
23 | O=C(Nc1ccc([N+](=O)[O-])cc1Cl)c1cc(Cl)ccc1O [Niclosamide, reference compound] | 42.32% | 27.3834 | – | – | –

Row | Compound | % positive [1] | Z score [2] | % positive [3] | % positive | Z score
24 | [O-][n+]1ccccc1[S-].[O-][n+]1ccccc1[S-].[Zn+2] [Pyrithione zinc, reference compound] | – | – | – | 10.31% | 4.1877
25 | OC(c1cc(C(F)(F)F)nc2c(C(F)(F)F)cccc12)C1CCCCN1 (stereo not drawn) [Mefloquine, reference compound] | 17.66% | 9.5116 | – | – | –
26 | C[n+]1cc2c3c(ccc2c2ccc4cc5c(cc4c21)OCO5)OCO3 [Sanguinarine nitrate, reference compound] | – | 11.4629 | 20.35% | – | –
27 | CO[C@@H]1C[C@@H](C[C@H]2CC[C@H](C)[C@H]([C@@H](C)C(=O)O)O2)O[C@]2(O[C@](C)([C@H]3CC[C@@](C)([C@@H]4O[C@@H]([C@H]5O[C@@](O)(CO)[C@H](C)C[C@@H]5C)C[C@@H]4C)O3)C[C@H]2C)[C@@H]1C [Nigericin sodium, reference compound] | 35.05% | 22.1153 | – | – | –
28 | OCCN1CCN(CCCN2c3ccccc3Sc3ccc(Cl)cc32)CC1 [Perphenazine, reference compound] | 12.07% | 5.4640 | – | – | –
29 | COc1ccc(CCN2CCC(Nc3nc4ccccc4n3Cc3ccc(F)cc3)CC2)cc1 [Astemizole, reference compound] | 7.37% | 2.0598 | – | – | –
30 | COC(=O)Nc1nc2ccc(Sc3ccccc3)cc2[nH]1 [Fenbendazole, reference compound] | 4.46% | −0.0511 | – | – | –
31 | CCN(CC)CCCC(C)Nc1c2ccc(Cl)cc2nc2ccc(OC)cc12 (stereo not drawn) [Quinacrine hydrochloride, reference compound] | 36.17% | 22.9232 | – | – | –
32 | CCCCC(CC)CNC(=N)NC(=N)NCCCCCCNC(=N)NC(=N)NCC(CC)CCCC (stereo not drawn) [Alexidine hydrochloride, reference compound] | 17.48% | 9.38 | – | – | –
33 | Oligomycin A [Oligomycin A (mix of A, B, C), reference compound] | 26.65% | 16.0298 | – | – | –
34 | O=c1cc(-c2ccc(O)c(O)c2)oc2cc(O)cc(O)c12 [Luteolin, reference compound] | 19.15% | 10.5904 | – | – | –
35 | Cc1cc(C2CCCCC2)n(O)c(=O)c1 [Ciclopirox olamine, reference compound] | 28.54% | 17.3996 | – | – | –
36 | C=C(CC)C(=O)c1ccc(OCC(=O)O)c(Cl)c1Cl [Ethacrynic acid, reference compound] | 18.71% | 10.2724 | – | – | –
37 | COc1cc(OC)c(CN2CC[C@H](NC(=O)c3ccc(-n4nc(C(C)(C)C)cc4C(C)(C)C)cc3)C2)c(OC)c1 [4-(3,5-di-tert-butyl-1H-pyrazol-1-yl)-N-[(3S)-1-(2,4,6-trimethoxybenzyl)pyrrolidin-3-yl]benzamide] | 14.27% | 7.0595 | – | – | –
38 | C=C(NC(=O)C(=C)NC(=O)c1csc(C2=N[C@@H]3c4csc(n4)[C@H]4NC(=O)c5csc(n5)[C@H]([C@](C)(O)[C@@H](C)O)NC(=O)[C@H]5CSC(=N5)/C(=C/C)NC(=O)[C@H]([C@@H](C)O)NC(=O)c5csc(n5)[C@]3(CC2)NC(=O)[C@H](C)NC(=O)C(=C)NC(=O)[C@H](C)NC(=O)[C@H]([C@@H](C)CC)N[C@@H]2C=Cc3c([C@H](C)O)cc(nc3[C@H]2O)C(=O)O[C@@H]4C)n1)C(N)=O [Thiostrepton, reference compound] | 15.09% | 7.6485 | – | – | –
39 | O=C1C=C2C=C[C@@H]3C[C@@]2(O1)[C@H]1CCCCN31 [Securinine, reference compound] | – | 7.6953 | 15.15% | – | –
40 | CO[C@@]12[C@H](COC(N)=O)C3=C(C(=O)C(C)=C(N)C3=O)N1C[C@@H]1N[C@@H]12 [Mitomycin C, reference compound] | 42.52% | 27.5299 | – | – | –
41 | CC1CN(C(=O)c2cc(-c3ccc(Cl)cc3)cs2)CC(C)O1 (stereo not drawn) [4-[[(4-(4-chlorophenyl)thiophen-2-yl]carbonyl]-2,6-dimethylmorpholine] | 23.93% | 14.0559 | – | – | –
42 | O=C(OCn1ncc(Cl)c(Cl)c1=O)c1cccc(C(F)(F)F)c1 [(4,5-dichloro-6-oxopyridazin-1(6H)-yl)methyl-3-(trifluoromethyl)benzoate] | 8.67% | 3.0023 | – | – | –
43 | C1CCC(C(CC2CCCCN2)C2CCCCC2)CC1.O=C(O)/C=C\C(=O)O (stereo not drawn) [Perhexilline maleate, reference compound] | – | −0.0837 | 4.42% | – | –
44 | Nc1ncn([C@@H]2O[C@H](CO)[C@@H](O)[C@H]2O)c(=O)n1 [5-Azacytidine, reference compound] | 10.87% | 4.5963 | – | – | –
45 | COc1ccc(S(=O)(=O)Nc2cccc3cc(C(=O)NCc4ccc(Cl)cc4)[nH]c23)cc1 [N-(4-chlorobenzyl)-7-[((4-methoxyphenyl)sulfonyl)amino]-(1H)-indole-2-carboxamide] | 11.30% | 4.9019 | – | – | –
